Assay results as given in US20250290057A1, “LYTIC AGENT FOR ENTEROCOCCUS FAECALIS” (priority 2022, published 2025).
Values after ≈ are worked out from the molar mass of the structure shown.

Columns and labels:
E. faecalis isolates = experiment: Minimal inhibitory concentration of antibacterial agents, "Eiken" DP42 dry plate; assay type: cell-based, Enterococcus faecalis; conditions: for MIC: Enterococcus faecalis, read-out: Minimal inhibitory concentration; for Sensitivity of strains to antibacterial agent: all E. faecalis strains (11 strains)
Protocol: (§1) The sensitivity to an antibacterial agent for each of the above-described 30 Enterococcus bacterial strains was invenstigated. Specifically, the bacterial strains prepared in 1 McFarland standard with physiological saline were diluted 500-fold with a BHI culture medium, and then aerobically cultured in solid-phase wells of an “Eiken” DP42 dry plate (Eiken Chemical Co., Ltd., Tokyo, Japan) for 24 hours.
(§2) The minimal inhibitory concentration of any one of the antibacterial agents, i.e., daptomycin (DAP), vancomycin (VCM), teicoplanin (TEIC), and linezolid (LZD), was determined in accordance with the instruction of the product. […] The results obtained by testing resistance to the antibacterial agents of the E. faecalis strains (11 strains) are shown in Table 1 below.

E. faecium isolates = experiment: as above; assay type: cell-based, Enterococcus faecium; conditions: all E. faecium (19 strains)
Protocol: as §1, §2

[1] = test system: E. faecalis isolate OCU031_14_8; experiment: Lytic activity by turbidity (OD600) of cell resuspension liquid; assay type: cell-based, Enterococcus faecalis; conditions: final concentration of 50 μg/mL
Protocol: The E. faecalis isolate OCU031_14_8 was aerobically cultured in a BHI culture medium, and centrifuged at 3,000×g for 15 minutes for collection. The cell pellets were washed, and resuspended in a HiTrap buffer. The phage-derived endolysin was added at a final concentration of 50 μg/mL to the cell resuspension liquid. The turbidity (OD600) was measured with a TVS062CA BioPhoto recorder (ADVANTEC Co., Ltd., Tokyo, Japan) every 1 minute to measure the lytic activity.

[2] = test system: biofilms of 11 E. faecalis isolates; experiment: Biofilm assay using crystal-violet staining; assay type: cell-based, Enterococcus faecalis; conditions: final concentration of 50 μg/mL, incubated overnight; all 11 E. faecalis strains
Protocol: A biofilm assay was performed, using crystal-violet staining, in accordance with a method described in the past literature (Yang, Y., et al., J Appl Oral Sci., 2018, 26: e20170566; Shao, C., et al., J Proteome res., 2012, 11 (9): 4465-75; He Z., et al., Int J Antimicrob Agents., 2012, 40 (1): 30-5). This assay is a method in which a crystal violet pigment is adsorbed into a bacteria-derived biofilm (comprising an extracellular matrix and the like), and then, ethanol is added to the resulting biofilm to elute the crystal violet pigment, the absorbance of which is measured to quantify the amount of the pigment.
Specifically, each of the 11 species of E. faecalis isolates was cultured at 37° C. overnight in a BHI culture medium supplemented with aztreonam (20 μg/mL), polymyxinB (20 μg/mL), and amphotericinB (4 μg/mL). Then, the isolate was diluted 100-fold with a new BHI culture medium, inoculated into a 96-well flat-bottomed polystyrene microtiter plate (Corning, Inc., Arizona, USA, 353072), and aerobically cultured further at 37° C. for 24 hours. Then, the 96-well plate was washed once with 200 μL of a HiTrap buffer, and 200 μL of phage-derived endolysin or a vehicle (SUMO protein having a His tag added thereto) was added (at a final concentration of 50 μg/mL). […] The absorbance of the sample was measured at 570 nm. […]

[3] = test system: GVHD model mice to which E. faecalis OCU031_14_8 strain was administered; experiment: Administration to GVHD model mice to which E. faecalis was administered; assay type: in vivo
Protocol: All the animal experiments were performed with the approval of the Animal Care and Use Committee of Osaka Metropolitan University. Germ-free C57BL/6 female mice (H2k^b) and SPF 129SvJ/JmsSlc female mice (6 to 8 weeks old) were purchased from SLC Japan Inc. (Hamamatsu, Japan) and CLEA Japan, Inc. (Tokyo, Japan) respectively. The mice were reared under temperature control (23±2° C.) under dark-period conditions from 8 pm to 8 am, and allowed to freely take sterile water and standard solid food for laboratory mice. The germ-free C57BL/6 mice were reared, one individual in one cage.
Before the stem cell transplantation, a suspension of E. faecalis OCU031_14_8 strain was orally administered to the germ-free C57BL/6 female mice. The suspension used was a suspension in which a 2.0×10^8 colony forming unit (cfu) was suspended in 200 μL of sterile PBS. […]
The survival rate after Day 0 was monitored every day. All the survival periods of the groups were statistically analyzed and compared using a generalized Wilcoxon test. […] The number of colonies formed was measured to quantify the amount of E. faecalis bacteria in the feces. […]

[4] = test system: GVHD model mice in which patient feces (OCU031_14) with Enterococcus dominance was transplanted; experiment: Administration to GVHD model mice in which fecal sample was transplanted; assay type: in vivo; conditions: 200 μg orally three times a week
Protocol: All the animal experiments were performed with the approval of the Animal Care and Use Committee of Osaka Metropolitan University. […] The survival rate after Day 0 was monitored every day, and the composition of the enteric microbes on each of Day 0 and Day 8 was analyzed by 16S rRNA gene sequencing.

[5] = test system: E. faecalis strains JCM5803, JCM8902; experiment: Lytic activity using presence or absence of a bacterial lump as an index; assay type: cell-based; design: key to Lysis by endolysin: lyzed: +; not lyzed: −; conditions: 50 μg/mL; for Lysis by endolysin: 37° C.
Protocol: (§3) The hemolytic activity of each of the bacterial strains was measured with a hemolysis assay using a Nissui Plate Horse Blood Agar medium. The cytolysin-related gene was detected with PCR. The vancomycin resistance was evaluated using the method described in (2) in Example 2. The vanA gene and the vanB gene that are vancomycin-resistant genes were detected with PCR. Furthermore, each bacterial strain was aerobically cultured in a BHI culture medium, and centrifuged at 300×g for 5 minutes for collection. The cell pellets were washed, and resuspended in a HiTrap buffer. The phage-derived endolysin was added at a final concentration of 50 μg/mL to the cell resuspension liquid. The resulting suspension was incubated at 37° C., and the lytic activity was measured, using the presence or absence of a bacterial lump as an index.

[6] = test system: E. faecium strain JCM5804; experiment: as above; assay type: cell-based; design: key to Lysis by endolysin: lyzed: +; not lyzed: −; conditions: 50 μg/mL
Protocol: as §3

[7] = E. faecalis strain OCU009_35_10
[8] = E. faecalis strain OCU031_pre_6
[9] = E. faecalis strain OCU031_pre_7
[10] = E. faecalis strain OCU031_pre_10

| Molecule | Minimal inhibitory concentration (E. faecalis isolates; E. faecalis strain OCU009_35_4) [µg/mL] | Minimal inhibitory concentration (E. faecalis isolates; [7]) [µg/mL] | Minimal inhibitory concentration (E. faecalis isolates; E. faecalis strain OCU015_56_6) [µg/mL] | Minimal inhibitory concentration (E. faecalis isolates; E. faecalis strain OCU031_7_1) [µg/mL] | Minimal inhibitory concentration (E. faecalis isolates; E. faecalis strain OCU031_7_9) [µg/mL] | Minimal inhibitory concentration (E. faecalis isolates; E. faecalis strain OCU031_14_5) [µg/mL] | Minimal inhibitory concentration (E. faecalis isolates; E. faecalis strain OCU031_14_8) [µg/mL] | Minimal inhibitory concentration (E. faecalis isolates; [8]) [µg/mL] | Minimal inhibitory concentration (E. faecalis isolates; [9]) [µg/mL] | Minimal inhibitory concentration (E. faecalis isolates; [10]) [µg/mL] | MIC (E. faecalis isolates; E. faecalis strain OCU015_56_7) [µg/mL] | Sensitivity of strains to antibacterial agent (E. faecalis isolates) | Sensitivity of strains to antibacterial agent (E. faecium isolates) | further results |
| --- | --- | --- | --- | --- | --- | --- | --- | --- | --- | --- | --- | --- | --- | --- |
| CCCCCCCCCC(=O)N[C@@H](Cc1c[nH]c2ccccc12)C(=O)N[C@H](CC(N)=O)C(=O)N[C@@H](CC(=O)O)C(=O)N[C@@H]1C(=O)NCC(=O)N[C@@H](CCCN)C(=O)N[C@@H](CC(=O)O)C(=O)N[C@H](C)C(=O)N[C@@H](CC(=O)O)C(=O)NCC(=O)N[C@H](CO)C(=O)N[C@@H]([C@H](C)CC(=O)O)C(=O)N[C@@H](CC(=O)c2ccccc2N)C(=O)O[C@@H]1C [daptomycin] | >4 | >4 | >4 | >4 | >4 | >4 | >4 | >4 | >4 | >4 | > 4 | exhibited sensitivity | exhibited sensitivity |  |
| teicoplanin | 1 | 2 | 0.5 | 2 | 2 | 1 | 1 | 1 | 1 | 1 |  | exhibited sensitivity | exhibited sensitivity | Minimal inhibitory concentration (E. faecalis isolates; E. faecalis strain OCU015_56_7): 0.5 µg/mL |
| CC(=O)NC[C@H]1CN(c2ccc(N3CCOCC3)c(F)c2)C(=O)O1 [linezolid] | 2 (≈ 5.93 µM) | 2 (≈ 5.93 µM) | 2 (≈ 5.93 µM) | 2 (≈ 5.93 µM) | 2 (≈ 5.93 µM) | 2 (≈ 5.93 µM) | 2 (≈ 5.93 µM) | 2 (≈ 5.93 µM) | 2 (≈ 5.93 µM) | 2 (≈ 5.93 µM) | 2 (≈ 5.93 µM) | exhibited sensitivity | exhibited sensitivity |  |
| phage-derived endolysin: endolysin of SEQ ID NO: 1 found in prophage sequences of 11 E. faecalis isolates; produced from a His-SUMO-labeled expression vector (protein, His-SUMO tag; Enterococcus faecalis-derived prophage, produced from a His-SUMO-labeled expression vector) MTLNGIDISSWQSNINVGKEGVSADFVIIKATGGTGYINPDCDRAFQQAISSGKKVAVYHFANEVGLEGTAEQEAEFFLKNIKGYIGKAVLVLDWESTNKGDVPWAKRWLDYVQSKTGVKPMFYTYTNVLQSYNFSSIAKADYGLWLADYGANNPQGYSQPTPPSVPYWNFISMYQYTSNGQLPGWNGRLDLNVFFGDRNMWDKYANPKSNPTPAPPVPPKPKRRYGYRVDDLQFVNGIWQVRNDVLGQPDFDWTENGINVAYIDKINPATGENTPDQELKVGDYFAFQPSSVGIITEQYSLNGKTISHVQFPDEFIWLYTESVEKLIYG |  |  |  |  |  |  |  |  |  |  |  |  |  | Lytic activity (OD600 turbidity) [1]: lysed; Lysis of biofilm (crystal violet, absorbance at 570 nm) [2]: lysed; Amount of the E. faecalis bacteria in the feces ([3]; 200 μg orally three times a week (10 mg/kg/day) from Day 0 until the third week): noticeable decrease; Survival rate ([3]; 25 days after the stem cell transplantation, 200 μg orally three times a week): 100%; Ratio of Enterococcus bacteria present in the enteric microbes ([4]; 8 days after the stem cell transplantation, 16S rRNA gene sequencing): decreased significantly; Survival rate ([4]; 30 days after the stem cell transplantation): 100%; Lytic activity ([5]; JCM8902 strain, vancomycin-resistant and cytolysin-positive E. faecalis isolate): exhibited a lytic activity; Lysis by endolysin ([5]; strain JCM5803): +; Lysis by endolysin ([5]; strain JCM8902 (vancomycin-resistant, cytolysin-positive)): +; Lytic activity ([6]; JCM5804 strain, E. faecium isolate): did not exhibit a lytic activity; Lysis by endolysin ([6]; strain JCM5804, 37° C.): − |
